Source: patent US20250027956A1, “Improved Gamma-Secretase Inhibitor Screening Assays” (VIB VZW, priority 2021, published 2025)

Key:
WT MEFs [1] = experiment: Immunoblot of APP-CTFs in drug-treated WT MEFs; type: cell-based, mouse; settings: 1 μM for 1-4 days, vs DMSO
Protocol: (§1) Cells were treated with the following drugs, usually for 4 days, unless otherwise stated: DAPT (2634/10, Tocris) 1 μM final; Inhibitor X (565771-250 μg, Calbiochem/Merck) 1 μM final; β-Secretase Inhibitor IV (565788, Calbiochem/Merck) 2 μM final, (2-Hydroxypropyl)-γ-cyclodextrin (H125-5G-I, Sigma Aldrich) 1 mM final; Adam 10 inhibitor G1254023X (SML0789, Sigma Aldrich) 3 μM final. For OSW-1 (30310-1, Sanbio/Cayman Chemical), cells were treated overnight with 10 nM. Diluent treatment alone (in most cases DMSO, water for the cyclodextrin) was used as vehicle control.
Whole cell extracts were prepared starting from lysed cultured cells (80% confluency). Protein concentration was determined using the Bio-Rad DC protein assay (Bio-Rad). These extracts were run on 4-12% Bis-Tris Bolt or NuPAGE precast gels in MES/MOPS running buffer (Invitrogen), followed by transfer on nitrocellulose membranes (Life Technologies). Of note, for APP-CTFs characterization, samples were run on 16% tricine gels (Life Technologies) in the appropriate running buffer (LC1675, Life Technologies). Membranes were blocked with 5% non-fat milk (1 h, RT), incubated with primary antibodies (overnight, 4° C.), rinsed and incubated with HRP-conjugated secondary antibodies (1 h, RT). […]

WT MEFs [2] = experiment: Confocal immunofluorescence (compartment size, Mander's colocalization, filipin) in WT MEFs; type: cell-based, mouse
Protocol: as §1
Immunofluorescence: Cells were fixed (4% paraformaldehyde (PFA)/4% sucrose in PBS free of Ca2+ and Mg2+ (PBS−/−) 20 min, RT), permeabilized (0.1% triton X-100 in PBS−/−; 10 min, RT), and blocked (2% BSA, 2% FBS, 1% gelatin, and depending of the experiment 2% of goat or donkey serum (Bioké or Sigma), 1 h RT). Primary antibodies diluted in the same blocking buffer were incubated overnight at 4° C. Following PBS washing steps, (goat- or donkey-) secondary antibodies conjugated with Alexa fluor dyes (Alexa 488, 568, or 647, all ThermoFisher Scientific) diluted in the blocking buffer were incubated for 1 h, RT. Coverslips were then mounted with Mowiol (Sigma). When cholesterol labelling was performed, fixed cells were treated with 200 μg·ml−1 filipin (F4767, Sigma) for 2 h at RT, prior to permeabilization.
Acquisition: Z stack images (spacing 2 μm), or a median plan were acquired on a Nikon 1AR connected to an inverse Nikon Ti-2000 equipped with an oil-immersion plan APO 60× objective lenses with 1.40 NA. Data were collected using Nikon Imaging Software.
Image analysis: All image analysis was done using Image J software (Schindelin et al 2012; Schneider et al 2012). To measure the area of the organelle of interest (early endosomes-EEA1; lysosomes-Lamp1; retromer-VPS35 . . . ), segmentation was realized using automatic thresholding. The following masks were used: Mean (EEA1), Ostu (Lamp1), Intermodes (VPS35). Overlap of signal of interests were quantified with Manders colocalisation index (Plugin Jacob, (Bolte and Cordelieres 2006)). When indicated, co-localization data was normalized to the reference group for multiple comparisons.

APPKO cells = experiment: Lysosomal Ca2+ content, Fura-2AM loaded cells challenged with GPN, APPKO cells; type: cell-based, mouse; settings: 1 μM, 4 days, normalized to DMSO
From the text: Diluent treatment alone (in most cases DMSO, water for the cyclodextrin) was used as vehicle control.
Briefly, the web-based CRISPR design tool was used to select the sequence to be targeted in mouse PSEN1 and PSEN2 (i.e. 5′-[…]-3′ and 5′-[…]-3′, respectively). Oligo pairs encoding guide sequences (obtained from Integrated DNA Technologies, IDT) were annealed and ligated into the pX330 plasmid (Addgene) according to the Zhang's laboratory protocol (https://www.addgene.org/crispr/zhang/). MEF cells were then transfected with the pX330-PSEN1 and PX330-PSEN2, using Fugene HD (Promega), in accordance with the manufacturer protocol. Selection of PSENdKO clones was achieved through serial dilution and confirmed by WB analysis. Further depletion of APP in different PSENdKO clones was achieved through electroporation of RNP complexes. […]
Cells were rinsed three times and left to equilibrate for at least 15-20 min (RT). […] Briefly, cells were segmented manually and fluorescence intensities were measured over time. Fura-2 signals were corrected to obtain ΔF/F0 (F0 being the initial signal recorded). For each cell, the area under the curve, corresponding to the aforementioned stimulation, was measured using GraphPad Prism.

WT MEFs [3] = experiment: Lysosomal Ca2+ content, Fura-2AM loaded cells challenged with GPN, WT cells; type: cell-based, mouse; settings: normalized to DMSO
Protocol: as §1
Cytosolic response: Ca2+ responses were measured as previously described in Coen et al 2012. Briefly, cells (0.005 to 0.01×106) were seeded two to three days prior to the experiment on glass coverslips (631-0153, VWR). On the day of recording, cells were rinsed three times in Ringer solution (155 mM NaCl, 5 mM KCl, 2 mM MgCl2, 2 mM CaCl2, 10 mM Glucose, 10 mM HEPES, 2 mM NaH2PO4·2H20; pH 7.3), and loaded 1 μM Fura2-AM (F1221, ThermoFisher Scientific) for 30 min (RT). Cells were rinsed three times and left to equilibrate for at least 15-20 min (RT). All acquisitions were carried out in Ringer Ca2+ free solution (same as above, albeit the 2 mM CaCl2 were replaced by 2 mM EGTA). During experiments, cells were challenged with different drugs, such as Thapsigargin (T7459, ThermoFisher Scientific, 1 μM final), GPN (ab145914, abcam, 100 μM final for MEFs, 500 μM for neurons), MLSA1 (Cat. No. 4746, Tocris, 20 μM final) or lonomycin (10634, Sigma Aldrich, 1 μM final). Images were acquired every 5 sec for 8-10 min, using an Olympus IX81 using an UAPO/340 40× oil objective (1.35 NA), operated by CellR Software (Olympus). Recordings were done using 340 and 380 nm excitation, and 530 nm emission filters. Image processing was performed using Image J Software (Schindelin et al 2012; Schneider et al 2012). Briefly, cells were segmented manually and fluorescence intensities were measured over time. Fura-2 signals were corrected to obtain ΔF/F0 (F0 being the initial signal recorded). For each cell, the area under the curve, corresponding to the aforementioned stimulation, was measured using GraphPad Prism.

lysosomal exocytosis = settings: cited from earlier work

C[C@H](NC(=O)Cc1cc(F)cc(F)c1)C(=O)N[C@H](C(=O)OC(C)(C)C)c1ccccc1 [DAPT]
APP-CTFs level (immunoblot) (WT MEFs [1]): rapidly accumulated APP-CTFs
early endosomes (EEA1) size (WT MEFs [2]; 1 μM for 1-4 days): significantly enlarged only after 4 days of treatment
APP-CTF accumulation in LAMP1-positive LE/Lys (Mander's colocalization APP-Lamp1) (WT MEFs [2]; 1 μM for 1-4 days, vs DMSO): increasing APP-CTF accumulation
cholesterol accumulation in LE/Lys (Filipin-Lamp1 colocalization) (WT MEFs [2]; 1 μM for 1-4 days, vs DMSO): only significantly from day 2
colocalization of VPS35 and EEA1 with Lamp1 (WT MEFs [2]; 1 μM for 1-4 days, from day 3 onward): increased colocalization of VPS35 and EEA1 with Lamp1
VPS35-positive organelles (size) (WT MEFs [2]; 1 μM, following 3 days of treatment): found to be increased
Lysosomal Ca2+ content (GPN-elicited Ca2+ response) (APPKO cells): did not affect the GPN-elicited Ca2+ response
lysosomal Ca2+ content (WT MEFs [3]; 1 μM for 1-4 days, 100 μM GPN): significantly reduced lysosomal Ca2+ content
lysosomal Ca2+ content (WT MEFs [3]; WT cells, 1 μM, 4 days): reduced

O=c1c(-c2ccc(O)cc2)coc2cc(O)cc(O)c12 [Genistein]
lysosomal exocytosis and cholesterol accumulation (lysosomal exocytosis): increase lysosomal exocytosis with a decrease in cholesterol accumulation
